Here are results for 7 compounds from patent US11267809B2, “BAF complex modulating compounds and methods of using the same” (THE BOARD OF TRUSTEES OF THE LELAND STANFORD JUNIOR …, priority 2017, dated 2022).

For experiment [1], the system named is HCT116 cells. In words: Synergy viability assay (CellTitre blue, 5 days), HCT116 ARID1A(+/+). The settings on record: for average combination index (CI) of putative inhibitor: with VE-821 (1-30 uM) and putative inhibitor (1-30 uM); for average combination index (CI) of putative inhibitor / average combination index (CI) of TOP2 inhibitor / IC50: 5 days; for average combination index (CI) of TOP2 inhibitor: with VE-821, ARID1A(+/+); for IC50: Homo sapiens, HCT-116, 120 h, read-out: VE-821 IC50 in combination with BAFi. It is filed as cell-based, human. The method, then:
To assess drug synergy, the Chou-Talalay method was employed to provide a mechanism-independent method to quantify the synergism of drug interactions. This method combines elements of the Scatchard, Michaelis-menten, Hill, and Henderson-Hasslebalch equations through the law of mass-action^31,32 to generate a quantifiable assessment of synergy. Molecules were tested both independently and then in 25 different combinations in HCT116 cells for 5 days as described above. To determine a combination index (CI), median-effect equations of the two respective molecules were determined from their respective dose responses. The median-effect equation was used to calculate a median-effect dose, and (Dx)ATRi,BAFi values which correspond for the respective doses of the BAFi and ATRi compounds and correlate with a given percentage of cells affected by the individual treatments. Normalized index values (IATRi, IBAFi), and the combination index are a ratio between the treatment dose, and the Dx for a given fraction of affected cells. Combination indices less than 0.9 are considered synergistic, while values ranging from 0.9 to 1.1 are additive, and CIs above 1.1 are antagonistic.
(§1) Viability assays were performed in 384-well plates. Cells were plated at 500 cells/well. Each drug was administered in 5-doses with 4 replicates per plate, and each 5×5 drug combination was administered with 8 replicates per plate, 24 hours after seeding. All error bars represent 4 or 8 technical replicates averaged over 3 independent experiments. Media containing fresh drug was replaced every 48 hours. After 5 days, cellular viability was measured using CellTitre blue, as described by the manufacturer.

The test system of experiment [2] is HCT116 (ARID1A−/−) cell line. Nature of the experiment: Synergy viability assay, HCT116 ARID1A(-/-). In kind it is cell-based, human. To be noted: for average combination index (CI) of TOP2 inhibitor: with VE-821, ARID1A(−/−), 5 days.
Source text: (§2) SMARCA4, the primary target of our original screen, is present in both human BAF and PBAF complexes in cancer^12. PBAF complexes differ from BAF complexes by incorporation of specific subunits. Specifically, PBAF complexes contain ARID2 (as opposed to ARID1A/B), PHF10 (BAF45a) (as opposed to […] (BAF45d)), PBRM1, and lack the BAF-specific subunit SS18. PBAF specific subunits are also frequently mutated in cancer, specifically renal clear cell carcinomas and cholangiocarcinomas^33-36. To assess whether the lead compound is targeting BAF, PBAF complexes, or both, we constitutively knocked down ARID1A or ARID2 by lentiviral transduction of HCT116 cells and compared the BAFi/ATRi synergy to the wild-type (ARID1A+/+).
Isogenic HCT116 ARID1A(+/+) and ARID1A(−/−) cell lines were originally obtained from Horizon Discovery. MCF-7, Cal-51, A-704, and MDA-MB-436, MDA-MB-468, HCC1143, HCC1187, HCC1954, and ACHN cell lines were obtained from American Type […]. All cell lines were grown in McCoy's 5a Media supplemented with 10% FBS.
as §1

Experiment [3] has as its system HCT116 cells infected with shRNA lentivirus targeting ARID1A. In words: Synergy viability assay, HCT116 with shARID1A knockdown. It is filed as cell-based, human. To be noted: single agent, 5 continuous days.
Source text: as §2, with “(ARID1A+/+). […] Further, upon knockdown of ARID1A or ARID2 (FIG. 3b), the synergistic effect observed between Baficillin1 and VE-821 was ablated upon loss of ARID1A (FIG. 3e) (CIshARID1A=1.48±0.14), but not loss of shARID2 (CIshARID2=0.42±0.04) (FIG. 3c-e).” for “(ARID1A+/+).”
as §1
Lentiviruses were produced in Lenti-X 293T cells (Clonetech) via spinfection with polyethylenimine transfection. 293T-x cells were transfected with PEI (Polysciences Inc., 24765) with lentiviral PLKO shARID1A or GIPZ shARID2 knockdown vectors, co-transfected with packaging vectors pspax2 and pMD2.G as previously described^49. PLKO shRNA construct targeting ARID1A (TRCN0000059090: shRNA-2) was obtained^50 and GIPZ Human ARID2 shRNA was purchased from Dharmacon (CloneId:V2LHS_74399). […]

Experiment [4] deals with HCT116 cells, ARID1A deleted. To be noted: HCT116 cells upon deletion of ARID1A, 5 days of treatment; read-out: IC50 of VE-821; cited from earlier work.
In experiment [5] the test system is HCT116 cells. To be noted: 5 days of treatment, before ARID1A deletion, read-out: IC50 of VE-821; cited from earlier work.

Where two headings read alike, the source gives them in different places.

One may read the IC50 as the midpoint of a concentration-inhibition curve.

Consider `COc1ccc2c(C)nc(Nc3nc(C)c(C)c(=O)[nH]3)nc2c1` [Madrasin], for which, in the experiment on HCT116 cells [1], the “average combination index (CI) of putative inhibitor” value was 1.4±0.04.
For the compound `O=C(/C=C/N1C[C@H]2C[C@@H]1CN2c1ccccn1)c1ccccc1O` [PFI-3], the “individual dose-response or synergy with VE-821” value was “no measurable individual dose-response or synergy effects” in experiment [2] (ARID1A(−/−) condition) and “no measurable individual dose-response or synergy effects” with HCT116 cells [1] (ARID1A(+/+) condition, as treated in FIG. 4c).
For the compound ICRF-193, the “average combination index (CI) of TOP2 inhibitor” value came to 0.82±0.08 in experiment [2] and 1.0±0.05 in the experiment with HCT116 cells [1].
For `COc1cccc2c1C(=O)c1c(O)c3c(c(O)c1C2=O)C[C@@](O)(C(=O)CO)C[C@@H]3O[C@H]1C[C@H](N)[C@H](O)[C@H](C)O1` [Doxorubicin], in that order: 0.95±0.06 and 0.87±0.07.
Taken in the same sequence, the figures for `CC(Oc1ccc(Oc2cnc3ccc(Cl)cc3n2)cc1)C(=O)O` (stereo not shown) [XK469] were 0.85±0.09 and 0.75±0.05.
For the compound `CS(=O)(=O)c1ccc(-c2cnc(N)c(C(=O)Nc3ccccc3)n2)cc1` [VE-821], the “sensitivity (cell survival) compared to wild-type HCT116” value in experiment [2] (single agent, 5 continuous days) was “increased sensitivity”; in experiment [3] it was “increased sensitivity”. Also, the IC50 was roughly 1000 nM with HCT116 cells [1] (highest dose of BAFi (Baficillin1) tested in combination), roughly 4000 nM in the experiment with HCT116 cells [1] (lowest dose of BAFi (Baficillin1) 1.25 uM), roughly 1000 nM in experiment [4] and roughly 10000 nM with HCT116 cells [5].
For `CCc1nc(N)nc(N)c1-c1ccc(Cl)cc1` [Chloroidine, Pyrimethamine], the “average combination index (CI) of putative inhibitor” value with HCT116 cells [1] is recorded as 1.3±0.18.
